Measured values: patent US8404665B2, “In vivo use of glutathione S-transferase activated nitric oxide donors” (University of Utah Research Foundation, priority 2002, dated 2013)
Entries after “also recorded” stand apart in the source; their conditions may differ.

Tests used:
DLD-1 = DLD-1 solid tumor cell growth; assay type: cell-based
Description: (§1) Cell Lines and Culture Conditions. HL-60, DLD1, and U937 cells were obtained from ATCC (Rockville, Md.). Meth A cells were from Dr. Wolfram Samlowski (University of Utah, Salt Lake City, Utah). The PPC-1 cell line was provided by Dr. Graeme Bolger (University of Alabama, Birmingham, Ala.). For the cell growth and apoptosis experiments, cells were cultured at a density of 150,000 cells/ml in RPMI-1640 with 10% fetal bovine serum at 37° C. in a 5% CO2 humidified atmosphere. Agents were added at the indicated concentrations 24 h after culture initiation. At the indicated time intervals, cells were harvested and washed twice in phosphate buffered saline (PBS) prior to processing for analysis of growth, differentiation, and apoptosis.
(§2) Cell Growth, Differentiation and Apoptosis Assays. The number of viable cells was determined using the MTT assay according to the manufacturer's protocol (Promega, Madison, Wis.) or using a Coulter counter. […] The assay is useful in calorimetric quantitation of cell viability and proliferation. In contrast, cell differentiation was evaluated using Wright and Non-Specific Esterase (NSE) staining of cells collected on microscope slides by cytospin as previously described (Magrinat, G. et al. (1992) Blood 80: 1880-1884). […]

Meth A = Meth A solid tumor cell growth; assay type: cell-based
Description: as §1, §2

HL-60 cells = test: Combination treatment: JS-K pretreatment then etoposide or daunorubicin, MTT; assay type: cell-based, human; details: HL-60, JS-K pretreatment (0.25 μM)
Description: Combination treatment. For combined drug treatment, HL-60 cell lines were pretreated with JS-K (0.25 μM) for 6 h in RPMI 1640 at 37° C. The JS-K-containing culture medium was then removed and replaced with fresh RPMI-1640. Three different concentrations of either etoposide (0.2, 0.3 and 0.4 μM) or daunorubicin (5, 10 and 50 nM) were added to the pretreated HL-60 cells. The cells were incubated at 37° C. for additional 48 hours. Solution of 3-[4,5-dimethylthiazol-2-yl]-2,5-[…] (MTT) tetrazolium salt (1 mg/ml) was added to the cells. The cells were incubated again for 3 h to allow for MTT metabolism to formazan by the succinate-tetrazolim reductase system active only in viable cells. A solution of 0.04 N HCl in isopropyl alcohol was added to stop the MTT assay. The supernatant was then aspirated and 150 μl of trituration was added to dissolve the water-insoluble blue formazan. The optical densities were read on a spectrophotometric plate reader at a single wavelength of 570 nm. The absorbance for control cells was defined as an MTT activity of 100%.

[1] = NO release by chemiluminescence detection, GSH without enzyme; assay type: physicochemical
Description: Measurement of NO Release. Chemiluminescence detection and quantification of NO evolving from the reactions of JS-K were conducted using an NO-specific Thermal Energy Analyzer (Model 502A, Thermedics, Analytical Instrument Division, Waltham, Mass.) essentially as previously described (Keefer, L. K. et al. (1996) Methods Enzymol. 268: 281-293). Briefly, pH 7.4 phosphate buffer containing 1 mM GSH was sparged with inert gas until a steady detector response was established. Where indicated, GSTs were added to a final concentration of 1.67 ug of enzyme/ml. […] The resulting curve was integrated to quantify the amount of NO released/mole of compound.
These reactions led to NO generation as predicted as indicated by purging gases from the solution as they formed into an NO-specific chemiluminescence detector. […] In the absence of enzyme, NO release began immediately upon adding GSH, increasing in rate until plateauing at 8 min and integrating to a total of 1.1 mol of NO per mol of JS-K within 43 min of mixing.

CCOC(=O)N1CCN(/[N+]([O-])=N/Oc2ccc([N+](=O)[O-])cc2[N+](=O)[O-])CC1 [JS-K, O^2-(2,4-dinitrophenyl) 1-[(4-ethoxycarbonyl)piperazin-1-yl]diazen-1-ium-1,2-diolate]
IC50 relative to leukemia lines (DLD-1): an order of magnitude greater than those for the two leukemia lines
IC50 relative to leukemia lines (Meth A): an order of magnitude greater than those for the two leukemia lines
effect of JS-K pretreatment on daunorubicin and etoposide (HL-60 cells): additive effect; also recorded: significantly enhanced efficacy of daunorubicin and etoposide
time at which NO release rate plateaued ([1]; 1 mM GSH, no enzyme): 8 min
total NO released ([1]; 1 mM GSH, pH 7.4 phosphate, 0.67 uM JS-K, no enzyme, within 43 min of mixing): 1.1 mol of NO per mol of JS-K
NO detection without GSH ([1]; pH 7.4 phosphate/0.67 uM JS-K solution): did not appear to be detected until 1 mM GSH was added
